Data set [1] concerns Plasmodium falciparum NF54. Kind of data set: Parasite lactate dehydrogenase (pLDH) assay over 72 h, CQ-sensitive strain. It counts as cell-based. As to the method:
The assay was performed in quadruplicate. The data were analyzed by nonlinear regression analysis using the GraphPad PRISM version 5.00 program to determine the IC50 of each compound.

The test system of data set [2] is Chinese Hamster Ovary (CHO) cell line, CHO-K1. As to the kind of experiment: MTT cytotoxicity assay. The settings on record: for IC50: Cricetulus griseus, CHO cells, MTT; for Selectivity index CHO/resistant Pf strain: cytotoxicity IC50/activity IC50, CHO/DD2; for Selectivity index CHO/sensitive Pf strain: cytotoxicity IC50/activity IC50, CHO/NF54. It counts as cell-based. As to the method: Cytotoxicity assays were conducted against the Chinese Hamster Ovary (CHO) cell line, ATCC CCL-61, strain CHO-K1. […] Cells were grown at 37°C in a humidified atmosphere of 5% CO2 and maintained by passage. Cells lines were seeded in 96-well microtitre plates at 10^4 cells/well in cell medium. […] DMSO (100 µL) was added to dissolve the MTT formazan precipitate, and the plates were gently agitated for 2 min to ensure homogeneity. Absorbance was measured at 540 nm using a Turner BioSystems, Inc. ModulusTM II Microplate Reader. The data were analyzed by nonlinear regression analysis using the GraphPad PRISM version 5.00 program to determine the IC50 of each compound.
In general terms: Tetrazolium dyes change colour on reduction, which living cells bring about.

Data set [3] can be described thus: Lipophilicity, 1-octanol/phosphate buffer pH 7.4. It counts as physicochemical. The note with it: read-out: Lipophilicity LogD7.4.
Procedure: Lipophilicity. Stock solutions (10 mM) of compounds were diluted to 100 μM in 96-well deep-well plate containing 300 µL of 1-octanol and 300 µL of phosphate buffer at pH 7.4. The plate was agitated on an orbital shaker at 750 rpm for 2 h. The organic and buffer layers of each well were transferred separately to a new analysis plate. The samples were analysed with the HPLC diode array detection as described for kinetic solubility. Samples from both layers were analysed to determine LogD7.4 values. • iii.
Data set [4] is described as follows: In vivo PK, iv and oral, whole blood. Further details: species or system C57BL/6 mice. The note with it: for Vd / clearance / half-life / Cmax / Tmax: C57BL/6, mouse; for Vd / clearance / half-life / AUC0-∞ / Oral Cmax relative to the IC50 value / BA: mice; for Cmax / Tmax: po, 5 mg/kg; for BA: oral bioavailability. As to the method:
• i. Animals. […] Food and water were available ad libitum. Mice were acclimatised to the experimental environment for 4-5 days prior to initiating the experiments. • ii. Oral drug administration. AD01 and PhX6 were prepared in 100% Millipore […] prepared in an aqueous suspension of 0.5% HPMC (w/v) containing 0.2% Tween 80 (v/v). The weighed compounds were sonicated and vortexed to ensure all solutions were homogenous. […] The total volume per administration was 200 μL. Blood samples were collected post-dose in lithium heparin microvials via tail bleeding at predetermined intervals at 0.5, 1, 3, 5, 8, 10 and 24 h. Samples were gently vortexed and stored at -80°C until analysis. • iii. Intravenous administration. AD01 and PhX6 were prepared in 100% Millipore […] prepared in an organic vehicle consisting of 10% N,N-dimethylacetamide, 30% polyethylene glycol 400 (PEG), 50% polypropylene glycol (PPG) and 10% ethanol (1:3:5:1, v/v) for intravenous (iv) dosing at 10 mg/kg. The total volume of administration was 80 μL. Blood samples were collected post-dose in lithium heparin microvials via tail bleeding at predetermined intervals at 0.16, 0.5, 1, 3, 5, 8, 10 and 24 h. Samples were gently vortexed and stored at -80°C until analysis. • iv. Sample processing and analysis. […] The mixture was vortexed vigorously for 1 min, and 5 μL of the supernatant were injected onto the analytical column following centrifugation (5590 g for 5 min). A Shimadzu HPLC and reverse phase Gemini NX-C18 column coupled to an AB Sciex 3200 Q TRAP MS was operated at unit resolution in the multiple reaction monitoring (MRM) mode as described above. […] Data analysis. Drug concentration versus time plots for each compound were used to determine maximal drug concentration C max, time T max to reach C max, elimination half-life t 1/2 and the area under the concentration-time curve from time zero to infinity, AUC0-inf. From these values the PK parameters clearance CL, volume of distribution Vd and oral bioavailability BA were determined using the non-compartmental analysis Microsoft Excel Add-In PKSolver ([Zhang et al., 2010]).

Data set [5] deals with CQ-sensitive Plasmodium falciparum NF54 strain. Kind of data set: Fixed ratio combination (isobologram) experiments, 72-h pLDH assay. It counts as cell-based. The note with it: asexual blood stages, Pf NF54, fixed ratio isobologram. As to the method: Artemisone was used in the combination studies with each of AD01 and PhX6. Combination studies were conducted using a modified version of the method described by [Fivelman et al. (2004)] ([Fivelman et al., 2004]). Against drug-sensitive NF54 P. falciparum parasites in the standard 72-h pLDH assay. The drug stocks were then mixed to make 6 different volumetric ratios to obtain a range of concentrations (Table 2). Concentration ranges for combinations were prepared from the predetermined single IC50 values (Table 3) such that the IC50 of the individual compounds would be in the middle of the plate. The FIC50 and ∑FIC were calculated as described in Eqs 6–8 ([Fivelman et al., 2004]).
Eq. 6: FIC50 of compound A FIC50A=IC50 A+B/IC50 A
Eq. 7: FIC50 of compound B FIC50B=IC50 B+A/IC50 B
Finally, FIC50 values of compounds in respective combinations were plotted as isobolograms.
Although there is currently no standardised method to determine drug combination effects, many models are available ([Wagner and Ulrich-Merzenich, 2009]; [Matthews et al., 2017]). The fixed ratio isobologram method has been widely used in many fields including antimalarial drug discovery and development ([Fivelman et al., 2004]; [Wagner and Ulrich-Merzenich, 2009]; [Matthews et al., 2017]). […] The relationship can also be determined by plotting the FIC50 of each compound on separate axes to create an isobologram. […]

[6] abbreviates: CQ-sensitive NF54, pLDH 72 h, n = 3, read-out: Plasmodium falciparum IC50 NF54.
Setting [7] is: P. falciparum NF54, read-out: NF54 IC50 (dotted line in concentration-time figures).
Where [8] appears, read: 10 mg/kg, intravenous, whole blood.
Setting [9] is: whole blood, iv, 10 mg/kg, intravenous, whole blood, read-out: t1/2 (converted).
Where [10] appears, read: oral gavage: AD01 4.6, PhX6 4.5, DpNEt 5 mg/kg.

“And” between values parts separate entries of the source, which are not always exact repeats. Equal values may be shown once. Read-outs that look alike come from different tables or passages of the source. Bounds are passed on as bounds.

On to `CCN(CC)c1ccc2nc3ccc(=[N+](CC)CC)cc-3sc2c1` [AD01], for which the IC50 in data set [1] (setting [6]) came out at 23.1 ± 2.5 nM. In data set [1] (setting [7]), the IC50 came to 23 nM. For the same compound, in data set [2], the IC50 was found to be 74000 ± 9400 nM, the “Selectivity index CHO/resistant Pf strain” value was >1,000 and the “Selectivity index CHO/sensitive Pf strain” value is >1,000. In addition, in data set [3], the logD at 2 h stood at 0.2. In data set [4] (setting [8]), this compound displayed a Vd of 16.2 ± 1.73 L/kg and a clearance of 74.4 ± 6.68 mL/min/kg. The half-life in data set [4] (setting [9]) is 151 ± 4.2 min. In addition, in data set [4] (whole blood), the Cmax worked out at 250 ± 50 nM and the Tmax turned out to be 52.8 ± 7.8 min. Besides, the “AUC0-∞” value in data set [4] (intravenous, whole blood) stood at 186 ± 15 µmol·min/L. For the same compound, in data set [4], the “Oral Cmax relative to the IC50 value” is listed as ~10 fold; the BA was 15% and 15 ± 4%. Further, the “AUC0-∞” value in data set [4] (setting [10]) came out at 101 ± 19 µmol·min/L. Moreover, the “Interaction in combination with artemisone (overall, in words)” value in data set [5] is recorded as “enhanced synergistically”.

As to `CCN(CC)c1ccc2nc3c4ccccc4/c(=N\c4ccccn4)cc-3oc2c1` [PhX6], in data set [1] (setting [6]), the IC50 worked out at 41.8 ± 0.04 nM. Also, in data set [1] (setting [7]), the IC50 stood at 41 nM. Besides, in data set [2], the IC50 is 192000 ± 4600 nM, the “Selectivity index CHO/resistant Pf strain” value is recorded as >1,000 and the “Selectivity index CHO/sensitive Pf strain” value is recorded as >1,000. The logD at 2 h in data set [3] amounted to 1. In data set [4] (setting [8]), this compound came in with a Vd of 14.9 ± 2.09 L/kg and a clearance of 21.5 ± 1.76 mL/min/kg. Also, the half-life in data set [4] (setting [9]) is 478 ± 43.8 min. Also, in data set [4] (whole blood, two-compartment behaviour, read-out: Distribution half-life), the half-life worked out at 26 min. For the same compound, in data set [4] (whole blood), the peak level (Cmax) was 3450 ± 680 nM and the Tmax is 48 ± 7.2 min. Also, in data set [4] (intravenous, whole blood), the “AUC0-∞” value amounted to 540 ± 44 µmol·min/L. Further, in data set [4], the “Oral Cmax relative to the IC50 value” is listed as ~100 fold; the BA was 60% and 60 ± 12%. For the same compound, the “AUC0-∞” value in data set [4] (setting [10]) is given as 1,150 ± 216 min∙µmol/L. Also, the “Interaction in combination with artemisone (overall, in words)” value in data set [5] was “enhanced synergistically”.

As usually defined, the Cmax is the peak of the concentration-time curve. By Tmax is commonly meant the time from dosing to the highest level.

These data come from publication PMC10800708, “Efficacies and ADME properties of redox active methylene blue and phenoxazine analogues for use in new antimalarial triple drug combinations with amino-artemisinins” (Frontiers in Pharmacology, 2024).
